In one data set the test system is Aspergillus fumigatus. In words: Antifungal activity, liquid phase microdilution (NCCLS M27/M38-P). The format is cell-based. Also on record: IC50 (minimum concentration to bring about 50% inhibition): unit not given here. The note with it: Aspergillus fumigatus strain 34. How it is done: (§1) Experiment A: Antifungal Activity of Compounds of the Formula (I)
(§2) The antifungal activity of the compounds of the formula (I) was determined using various strains of yeast and filamentous fungi. […] Table no.
A general note: Dilution methods test growth across graded concentrations, often in twofold steps.

A further data set concerns Candida albicans. Described as above. The data set is classed as cell-based. The following applies: Candida albicans strain 21. On the procedure:
as §1, §2

A further data set has as its target T1, CYP2C9 (Homo sapiens, UniProt P11712).
T1 construct: purchased Gentest
In words: Inhibition of human cytochromes, fluorescent substrates. The note with it: isoenzyme (Gentest), 37° C. The format is in vitro ADME. On the procedure: (§3) Experiment B: Inhibition of Human Cytochromes by Compounds of the Formula (I)
(§4) Inhibition of the enzymatic activity of the most significant isoforms of human cytochromes by the compounds of the formula (I) was measured by using specific substrates which become fluorescent as a result of the metabolic action of a particular cytochrome isoform. The individual isoenzymes (Gentest) and the respective substrates were incubated in 96 well plates in buffer containing […] at 37° C. in the presence or absence of the compound under investigation. […] The degree of inhibition of each individual isoenzyme by known inhibitors was also assessed as a positive control.

In another data set the target is T2, CYP2C19 (Homo sapiens, UniProt P33261).
T2 construct: purchased Gentest
T2 sequence (P33261 whole entry): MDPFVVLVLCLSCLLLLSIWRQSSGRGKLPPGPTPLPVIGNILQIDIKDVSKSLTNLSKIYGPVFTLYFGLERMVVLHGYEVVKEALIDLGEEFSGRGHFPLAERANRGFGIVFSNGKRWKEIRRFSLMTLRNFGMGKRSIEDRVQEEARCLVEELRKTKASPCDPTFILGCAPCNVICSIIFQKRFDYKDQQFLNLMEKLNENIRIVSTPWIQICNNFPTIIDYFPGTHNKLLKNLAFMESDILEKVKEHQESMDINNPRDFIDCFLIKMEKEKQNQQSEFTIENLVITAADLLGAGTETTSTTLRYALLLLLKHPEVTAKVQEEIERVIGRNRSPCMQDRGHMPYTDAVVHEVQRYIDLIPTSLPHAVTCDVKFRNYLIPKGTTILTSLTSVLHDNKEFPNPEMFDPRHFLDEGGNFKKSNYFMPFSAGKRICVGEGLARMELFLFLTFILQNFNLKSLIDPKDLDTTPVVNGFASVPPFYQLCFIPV
Described as above. The data set is classed as in vitro ADME. The following applies: isoenzyme (Gentest), 37° C. On the procedure:
as §3, §4

A further data set addresses T3, CYP3A4 (Homo sapiens, UniProt P08684).
T3 construct: purchased Gentest
The description is as above. The format is in vitro ADME. The following applies: isoenzyme (Gentest), 37° C. On the procedure:
as §3
The individual isoenzymes (Gentest) and the respective substrates were incubated in 96 well plates in buffer containing […] at 37° C. in the presence or absence of the compound under investigation. […] The degree of inhibition of each individual isoenzyme by known inhibitors was also assessed as a positive control.

Data on five compounds can be found in patent publication US7427620B2, “Azole derivative useful as antifungal agents with reduced interaction with metabolic cytochromes” (Italfarmaco SPA, priority 2003, dated 2008).

In brackets after ≈: the same amount, converted by molar mass.

T3 sequence (P08684 whole entry): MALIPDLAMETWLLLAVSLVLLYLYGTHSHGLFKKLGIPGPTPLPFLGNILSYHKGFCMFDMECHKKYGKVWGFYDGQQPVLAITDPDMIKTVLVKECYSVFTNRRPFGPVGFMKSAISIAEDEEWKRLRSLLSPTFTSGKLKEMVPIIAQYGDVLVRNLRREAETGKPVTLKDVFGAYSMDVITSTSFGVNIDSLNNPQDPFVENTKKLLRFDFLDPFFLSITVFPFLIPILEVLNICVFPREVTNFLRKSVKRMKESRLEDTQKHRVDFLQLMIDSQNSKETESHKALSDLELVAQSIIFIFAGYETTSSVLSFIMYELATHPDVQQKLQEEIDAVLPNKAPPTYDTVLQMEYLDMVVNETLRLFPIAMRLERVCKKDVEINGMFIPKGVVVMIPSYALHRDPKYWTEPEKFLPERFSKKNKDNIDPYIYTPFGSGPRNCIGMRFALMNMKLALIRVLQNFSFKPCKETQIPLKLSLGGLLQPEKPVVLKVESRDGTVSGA
T1 sequence (P11712 whole entry): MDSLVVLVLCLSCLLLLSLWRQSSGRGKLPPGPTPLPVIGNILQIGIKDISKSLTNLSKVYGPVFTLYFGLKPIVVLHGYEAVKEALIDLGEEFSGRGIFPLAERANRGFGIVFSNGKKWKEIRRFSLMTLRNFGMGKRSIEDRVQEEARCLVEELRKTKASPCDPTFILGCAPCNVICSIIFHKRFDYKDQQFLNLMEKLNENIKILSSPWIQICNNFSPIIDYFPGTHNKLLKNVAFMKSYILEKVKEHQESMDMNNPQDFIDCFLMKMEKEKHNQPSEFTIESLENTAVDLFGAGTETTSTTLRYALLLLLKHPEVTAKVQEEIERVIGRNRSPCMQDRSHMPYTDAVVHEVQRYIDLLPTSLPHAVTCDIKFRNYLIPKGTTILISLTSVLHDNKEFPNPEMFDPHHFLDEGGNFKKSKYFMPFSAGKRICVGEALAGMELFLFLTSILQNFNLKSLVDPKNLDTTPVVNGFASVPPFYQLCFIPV

Consider `CCC(C)n1ncn(-c2ccc(N3CCN(c4ccc(OCC5COC(Cn6cncn6)(c6cccc[n+]6[O-])O5)cc4)CC3)cc2)c1=O` (racemic) [Example 17, cis(±)-4-{4-[4-{4-[2-(1-oxy-pyridin-2-yl)-2-(1H-1,2,4-triazol-1-yl-methyl)-1,3dioxolan-4-yl-methoxy]phenyl}piperazin-1-yl]-phenyl}-2-[(1,R/S)-1-methylpropyl]-2,4-dihydro-3H-1,2,4-triazol-3-one], for which the “IC50 (minimum concentration to bring about 50% inhibition)” value in the data set with Aspergillus fumigatus is greater than 64; with Candida albicans, 38 mg/mL (≈ 58.1 mM).
As to `CCC(C)n1ncn(-c2ccc(N3CCN(c4ccc(OCC5COC(Cn6cncn6)(c6cc[n+]([O-])cc6)O5)cc4)CC3)cc2)c1=O` (racemic) [Example 18, cis(±)-4-{4-[4-{4-[2-(1-oxy-pyridin-4-yl)-2-(1H-1,2,4-triazol-1-yl-methyl)-1,3-dioxolan-4-yl-methoxy]phenyl}piperazin-1-yl]phenyl}-2-[(1,R/S)-1-methylpropyl]-2,4-dihydro-3H-1,2,4-triazol-3-one], the “IC50 (minimum concentration to bring about 50% inhibition)” value with Candida albicans came to 78 mg/mL (≈ 119 mM).
By IC50 is commonly meant the concentration that gives 50% inhibition. As for “cis(±)-4-{4-[4-{4-[2-(pyridin-3-yl)-2-(1H-1,2,4-triazol-1-yl-methyl)-1,3-dioxolan-4-yl-methoxy]phenyl}-1-piperazinyl]-phenyl}-2-(1-(R,S)methylpropyl)-2,4-dihydro-3H-1,2,4-triazol-3-one [Example 11]”, the 50% inhibitory concentration (IC50) against CYP2C9 was 64.2 ± 6.2 µM; on CYP2C19, 31.5 ± 3.9 µM; on CYP3A4, 0.7 ± 0.1 µM.
Consider “cis(±)-4-{4-[4-{4-[2-(pyridin-4-yl)-2-(1H-1,2,4-triazol-1-yl-methyl)-1,3-dioxolan-4-yl-methoxy]phenyl}-1-piperazinyl]-phenyl}-2-(1-(R,S)methylpropyl)-2,4-dihydro-3H-1,2,4-triazol-3-one [Example 10]”, for which the “IC50 (minimum concentration to bring about 50% inhibition)” value amounted to 8 with Aspergillus fumigatus and 39 mg/mL in the data set with Candida albicans.
Regarding “cis(±)-4-{4-[4-{4-[2-(thiazol-2-yl)-2-(1H-1,2,4-triazol-1-yl-methyl)-1,3-dioxolan-4-yl-methoxy]phenyl}-1-piperazinyl]-phenyl}-2-(1-(R,S)methylpropyl)-2,4-dihydro-3H-1,2,4-triazol-3-one [Example 12]”, the IC50 stood at 18.2 ± 0.3 µM at CYP2C9, 10.9 ± 0.4 µM against CYP2C19 and 0.3 ± 0.1 µM against CYP3A4.
